In publication PMC6017562, “Aethiopinolones A–E, New Pregnenolone Type Steroids from the East African Basidiomycete Fomitiporia aethiopica” (Molecules : A Journal of Synthetic Chemistry and Natural …, 2018):
In brackets after ≈: the same amount, converted by molar mass.

Legend:
[1] = MTT cytotoxicity assay, L929; type: cell-based, mouse; details: mouse, L929 fibroblast cells, 5 days incubation
Protocol: (§1) In vitro cytotoxicity (IC50) of the pure compounds 1–5 was determined against a panel of mammalian cell lines including mouse fibroblast L929, HeLa (KB-3-1), epidermoid carcinoma cells A431, breast cancer cells MCF-7, prostate cancer cells PC-3 and adenocarcinomic human alveolar basal epithelial cells A549. The cell lines were cultured in DMEM (Gibco, ThermoFisher Scientific, Hilden, Germany) and MCF-7 in RPMI (Lonza, Cologne, Germany) media, all supplemented with 10% of fetal bovine serum (Gibco) under 10% CO2 at 37 °C. The cytotoxicity assay was performed according to the MTT (3-(4,5-dimethylthiazol-2-yl)-2,5 diphenyltetrazolium bromide) method in 96-well microplates (ThermoFisher Scientific). Briefly 60 μL aliquots of serial dilutions from an initial stock of 1 mg/mL in MeOH of the test compounds were added to 120 μL aliquots of a cell suspension (5.0 × 10^4 cells/mL) in 96-well microplates. After 5 days incubation, a MTT assay was performed, and the absorbance measured at 590 nm using an ELISA plate reader (Victor, PerkinElmer, Überlingen, Germany). The concentration at which the growth of cells was inhibited to 50% of the control (IC50) was obtained from the dose response curves. The negative control was methanol.

[2] = MTT cytotoxicity assay, KB3.1; type: cell-based, human; details: human, HeLa (KB-3-1) cells, KB3.1 cells, 5 days incubation
Protocol: as §1

[3] = MTT cytotoxicity assay, A431; type: cell-based, human; details: human, A431 epidermoid carcinoma cells, 5 days incubation
Protocol: as §1

[4] = MTT cytotoxicity assay, PC-3; type: cell-based, human; details: human, PC-3 prostate cancer cells, PC-3 cells, 5 days incubation
Protocol: as §1

[5] = MTT cytotoxicity assay, SKOV-3; type: cell-based, human; details: human, SKOV-3 cells, 5 days incubation
[6] = MTT cytotoxicity assay, MCF-7; type: cell-based, human; details: human, MCF-7 breast cancer cells, MCF-7 cells, 5 days incubation
Protocol: as §1

[7] = tested on: various mammalian cell lines; assay: Cytotoxic effects against the panel of mammalian cell lines (overall statement); type: cell-based; details: all tested cell lines of Table 3
Protocol: as §1

[8] = MTT cytotoxicity assay, A549; type: cell-based, human; details: human, A549 alveolar basal epithelial adenocarcinoma cells, 5 days incubation
Protocol: as §1

mouse fibroblast L929 = assay: MTT cytotoxicity assay, L929; type: cell-based; details: L929 cells, 5 days incubation
Protocol: as §1

HeLa (KB-3-1) = assay: MTT cytotoxicity assay, KB3.1; type: cell-based, human; details: KB3.1 cells, 5 days incubation
Protocol: as §1

[9] = tested on: epidermoid carcinoma cells A431; assay: MTT cytotoxicity assay, A431; type: cell-based, human; details: 5 days incubation
Protocol: as §1

[10] = tested on: adenocarcinomic human alveolar basal epithelial cells A549; assay: MTT cytotoxicity assay, A549; type: cell-based; details: 5 days incubation
Protocol: as §1

[11] = tested on: prostate cancer cells PC-3; assay: MTT cytotoxicity assay, PC-3; type: cell-based, human; details: PC-3 cells, 5 days incubation
Protocol: as §1

SKOV-3 = assay: MTT cytotoxicity assay, SKOV-3; type: cell-based, human; details: SKOV-3 cells, 5 days incubation
[12] = tested on: breast cancer cells MCF-7; assay: MTT cytotoxicity assay, MCF-7; type: cell-based, human; details: MCF-7 cells, 5 days incubation
Protocol: as §1

Row | Structure (SMILES) | IC50 at 5 days [1] | IC50 at 5 days [2] | IC50 at 5 days [3] | IC50 at 5 days [4] | IC50 at 5 days [5] | IC50 at 5 days [6] | Cytotoxic activity against the tested cell lines (in words) [7] | IC50 at 5 days [8] | Cytotoxicity IC50 (mouse fibroblast L929) | Cytotoxicity IC50 (HeLa (KB-3-1)) | Cytotoxicity IC50 [9] | Cytotoxicity IC50 [10] | Cytotoxicity IC50 [11] | Cytotoxicity IC50 (SKOV-3) | Cytotoxicity IC50 [12]
1 | CC(=O)C1C(O)CC2C3=CC(=O)C4CC(O)CCC4(C)C3(O)CCC21C (centres unmarked) [Compound 1, Aethiopinolone A] | 28 µg/mL (≈ 77.2 µM) | 19 µg/mL (≈ 52.4 µM) | 22 µg/mL (≈ 60.7 µM) | 8 µg/mL (≈ 22.1 µM) | 26 µg/mL (≈ 71.7 µM) | 20 µg/mL (≈ 55.2 µM) | strongest activity | – | – | – | – | – | – | – | –
2 | CC(=O)[C@H]1[C@H](O)C[C@H]2C3=CC(=O)[C@H]4C[C@H](O)CC[C@]4(C)[C@@]3(O)CC[C@@]21C [Compound 2, Aethiopinolone B] | 45 µg/mL (≈ 124 µM) | 39 µg/mL (≈ 108 µM) | > 70 µg/mL | > 70 µg/mL | > 70 µg/mL | > 70 µg/mL | – | > 70 µg/mL | – | – | – | – | – | – | –
3 | CC(=O)C1=CC[C@H]2C3=CC(=O)[C@H]4CC(=O)CC[C@]4(C)[C@@]3(O)CC[C@]12C [Compound 5, Aethiopinolone E] | 40 µg/mL (≈ 117 µM) | 33 µg/mL (≈ 96.4 µM) | 14 µg/mL (≈ 40.9 µM) | 39 µg/mL (≈ 114 µM) | 34 µg/mL (≈ 99.3 µM) | 16 µg/mL (≈ 46.7 µM) | – | 43 µg/mL (≈ 126 µM) | – | – | – | – | – | – | –
4 | CC(=O)C1=CC[C@H]2C3=CC(=O)[C@H]4C[C@@H](O)CC[C@]4(C)[C@@]3(O)CC[C@]12C [Compound 3, Aethiopinolone C] | 40 µg/mL (≈ 116 µM) | 35 µg/mL (≈ 102 µM) | 27 µg/mL (≈ 78.4 µM) | 45 µg/mL (≈ 131 µM) | 38 µg/mL (≈ 110 µM) | 18 µg/mL (≈ 52.3 µM) | moderate activity | 70 µg/mL (≈ 203 µM) | – | – | – | – | – | – | –
5 | CC(=O)C1=CC[C@H]2C3=CC(=O)[C@H]4C[C@H](O)CC[C@]4(C)[C@@]3(O)CC[C@]12C [Compound 4, Aethiopinolone D] | 45 µg/mL (≈ 131 µM) | 39 µg/mL (≈ 113 µM) | 21 µg/mL (≈ 61 µM) | 40 µg/mL (≈ 116 µM) | 36 µg/mL (≈ 105 µM) | 17 µg/mL (≈ 49.4 µM) | moderate activity | 52 µg/mL (≈ 151 µM) | – | – | – | – | – | – | –
6 | C/C(=C\c1csc(C)n1)[C@@H]1C[C@@H]2O[C@]2(C)CCC[C@H](C)[C@H](O)[C@@H](C)C(=O)C(C)(C)[C@@H](O)CC(=O)O1 [Epothilon B, reference compound] | – | – | – | – | – | – | – | – | 0.0014 µg/mL | 0.00022 µg/mL | 0.0006 µg/mL | 0.005 µg/mL | 0.0002 µg/mL | 0.0014 µg/mL | 0.0004 µg/mL
